Article PMC9823191, “Production, characterization and techno-economic evaluation of Aspergillus fusant L-asparaginase” (AMB Express, 2023)

System: T1, Fusant-06 L-ASNase
T1 construct: native extracellular enzyme from fusant fermentation broth; PEG/citrate ATPS then Sephadex G-100; may be recombined from both parents
Experiment: ammonia release (Imada assay); Lineweaver-Burk plot
Assay type: biochemical
Conditions: L-asparagine 0.005–1.28 mM; 5 µg/mL (0.043 µM) enzyme; optimum conditions (pH and temperature not stated for the kinetics)

Which Km does the source give for `NC(=O)C[C@H](N)C(=O)O` [L-asparagine] here?
The Km was 66.7 µM.
